Data as given in the CheMixHub ionic liquid set.
“And” between values parts separate entries of the source, which are not always exact repeats. Identical values can stand only once.

Test: xn = mol fraction of the nth substance listed

CN(CCO)CCO + CCCC[n+]1ccn(C)c1.F[B-](F)(F)F + O
viscosity [mPa·s], 101 kPa
Details | 293.15 K | 303.15 K | 313.15 K | 323.15 K | 333.15 K
x2 = 0.0987, x1 = 0.7994 | 86.7 | 48.2 | 28.8 | 18.4 | 12.32
x2 = 0.0989, x1 = 0.623 | 77.4 | 43.7 | 26.1 | 16.6 | 11.12
x2 = 0.0991, x1 = 0.4459 | 59.2 | 33.7 | 20.4 | 13.16 | 8.94
x2 = 0.0993, x1 = 0.2681 | 32.9 | 19.2 | 12.08 | 8.13 | 5.78
x2 = 0.0995, x1 = 0.0895 | 8.59 | 5.78 | 4.14 | 3.11 | 2.41
x2 = 0.1972, x1 = 0.7097 | 77.7 | 43.1 | 26 | 16.8 | 11.42
x2 = 0.1978, x1 = 0.5528 | 67.4 | 37.3 | 22.6 | 14.63 | 9.99
x2 = 0.1979, x1 = 0.3957 | 50.3 | 28.3 | 17.5 | 11.53 | 8.07
x2 = 0.1982, x1 = 0.2378 | 28.6 | 17 | 11.04 | 7.72 | 5.63
x2 = 0.1986, x1 = 0.0794 | 10.66 | 7.28 | 5.26 | 3.98 | 3.12
x2 = 0.2954, x1 = 0.6203 | 72.6 | 40.5 | 24.7 | 16.15 | 11.16
x2 = 0.2959, x1 = 0.4832 | 60.5 | 34.2 | 21.1 | 13.97 | 9.79
x2 = 0.2963, x1 = 0.3457 | 45 | 26.1 | 16.5 | 11.2 | 8.04
x2 = 0.2968, x1 = 0.2077 | 27.8 | 17.2 | 11.44 | 8.18 | 6.09
x2 = 0.2972, x1 = 0.0694 | 13.16 | 9.12 | 6.68 | 5.08 | 4
x2 = 0.3934, x1 = 0.531 | 68.7 | 39.1 | 24.3 | 16.14 | 11.32
x2 = 0.3939, x1 = 0.4136 | 56.5 | 32.9 | 20.8 | 14.05 | 10.02
x2 = 0.3944, x1 = 0.2958 | 43 | 25.9 | 16.8 | 11.65 | 8.49
x2 = 0.395, x1 = 0.1777 | 28.8 | 18.3 | 12.49 | 8.99 | 6.8
x2 = 0.3955, x1 = 0.0593 | 16.8 | 11.66 | 8.53 | 6.54 | 5.13
x2 = 0.4912, x1 = 0.442 | 66.5 | 38.9 | 24.6 | 16.7 | 11.88
x2 = 0.4917, x1 = 0.3442 | 57.5 | 34.4 | 21.8 | 14.94 | 10.7
x2 = 0.4923, x1 = 0.2461 | 44.3 | 27.4 | 18.2 | 12.72 | 9.42
x2 = 0.493, x1 = 0.1478 | 32.9 | 21.3 | 14.71 | 10.66 | 8.1
x2 = 0.4934, x1 = 0.0493 | 22.1 | 15.2 | 10.99 | 8.33 | 6.54
x2 = 0.5887, x1 = 0.3532 | 69.7 | 41.6 | 26.2 | 17.9 | 12.88
x2 = 0.5893, x1 = 0.275 | 60 | 37.1 | 23.5 | 16.3 | 11.86
x2 = 0.5898, x1 = 0.1966 | 49.1 | 30.6 | 20.7 | 14.67 | 10.75
x2 = 0.5903, x1 = 0.118 | 39.4 | 25.6 | 17.7 | 12.8 | 9.64
x2 = 0.5909, x1 = 0.0394 | 29.3 | 20 | 14.32 | 10.68 | 8.29
x2 = 0.6861, x1 = 0.2646 | 74.6 | 45.2 | 28.8 | 19.8 | 14.34
x2 = 0.6866, x1 = 0.2059 | 66.4 | 41 | 26.5 | 18.5 | 13.45
x2 = 0.687, x1 = 0.1472 | 57.5 | 35.8 | 24.1 | 17.1 | 12.65
x2 = 0.6874, x1 = 0.0884 | 47.3 | 30.3 | 20.9 | 15.08 | 11.36
x2 = 0.6877, x1 = 0.0295 | 40.3 | 26.6 | 18.8 | 13.79 | 10.55
x2 = 0.7831, x1 = 0.1762 | 84.7 | 51.6 | 32.9 | 22.7 | 16.5
x2 = 0.7836, x1 = 0.1371 | 78.6 | 48.6 | 31.5 | 22 | 16.01
x2 = 0.7839, x1 = 0.0979 | 72.2 | 44.8 | 29.8 | 20.9 | 15.35
x2 = 0.7842, x1 = 0.0588 | 65.6 | 41.8 | 28.1 | 20 | 14.73
x2 = 0.7845, x1 = 0.0196 | 56.4 | 36.7 | 25 | 18 | 13.44
x2 = 0.8801, x1 = 0.0879 | 102 | 62.1 | 40.3 | 27.1 | 19.5
x2 = 0.8804, x1 = 0.0684 | 99.2 | 60.7 | 39.7 | 26.8 | 19.3
x2 = 0.8805, x1 = 0.0294 | 90.7 | 56.4 | 37.2 | 25.5 | 18.5
x2 = 0.8806, x1 = 0.0098 | 80.9 | 50.9 | 33.8 | 23.7 | 17.3
x2 = 0.8806, x1 = 0.0488 | 94.5 | 58.3 | 38.5 | 26.1 | 18.9

CCCC[n+]1ccn(C)c1.F[B-](F)(F)F + CCCC[n+]1ccn(C)c1.F[P-](F)(F)(F)(F)F
101 kPa, x2 = 0
Details | viscosity [mPa·s]
299.15 K | 101.9
301.15 K | 92
303.15 K | 83.4

O=C1CCCC1 + CCCC[n+]1ccn(C)c1.F[P-](F)(F)(F)(F)F
298.15 K, 101.3 kPa
Details | viscosity [mPa·s]
x1 = 0.0936 | 175
x1 = 0.3093 | 66
x1 = 0.4012 | 42.2
x1 = 0.5514 | 19.23

CC(=O)[O-].CCCC[n+]1ccn(C)c1 + CCCC[n+]1ccn(C)c1.O=S(=O)([N-]S(=O)(=O)C(F)(F)F)C(F)(F)F
101 kPa
Details | electrical conductivity [S/m] | viscosity
283.15 K, x2 = 0 | 0.0145 | 1815 mPa·s
283.15 K, x2 = 0.1057 | 0.0213 | 1212 mPa·s
283.15 K, x2 = 0.3662 | 0.0403 | 565 mPa·s
298.15 K, x2 = 0.8097 | 0.28 | 73 mPa·s
303.15 K, x1 = 0.5001 | – | 100 mPa·s
303.15 K, x1 = 0.7497 | – | 161.5 mPa·s
313.15 K, x2 = 0 | 0.138 | 154 mPa·s
313.15 K, x2 = 0.1057 | 0.168 | 128 mPa·s
313.15 K, x2 = 0.3662 | 0.236 | 82 mPa·s
313.15 K, x2 = 0.6541 | 0.387 | 49.4 mPa·s
313.15 K, x2 = 0.8097 | 0.504 | 38.2 mPa·s
314.3 K, x2 = 0 | – | 126 mPa·s and 138 mPa·s
314.3 K, x2 = 0.7282 | 0.474 | 39.2 mPa·s
323.15 K, x1 = 0.7497 | – | 56 mPa·s
333.15 K, x2 = 0.1057 | 0.416 | 47.4 mPa·s

Nc1ccccc1 + CCCC[n+]1ccn(C)c1.O=S(=O)([N-]S(=O)(=O)C(F)(F)F)C(F)(F)F
viscosity [mPa·s], 100 kPa
Details | 288.15 K | 293.15 K | 298.15 K | 303.15 K | 308.15 K | 313.15 K | 318.15 K | 323.15 K | 328.15 K | 333.15 K
x1 = 0.1 | 66.3 | 52.2 | 42.1 | 34.3 | 28.6 | 23.9 | 20.44 | 17.56 | 15.22 | 13.34
x1 = 0.2 | 55.9 | 44.1 | 35.9 | 29.3 | 24.5 | 20.59 | 17.66 | 15.22 | 13.24 | 11.63
x1 = 0.3029 | 46.5 | 36.8 | 30.1 | 24.7 | 20.77 | 17.48 | 15.05 | 13.02 | 11.36 | 10.01
x1 = 0.4013 | 38.5 | 30.6 | 25.1 | 20.73 | 17.48 | 14.76 | 12.76 | 11.06 | 9.68 | 8.56
x1 = 0.5024 | 31.1 | 24.8 | 20.42 | 16.98 | 14.38 | 12.17 | 10.57 | 9.19 | 8.08 | 7.16
x1 = 0.6002 | 24.6 | 19.71 | 16.28 | 13.64 | 11.58 | 9.84 | 8.59 | 7.5 | 6.61 | 5.88
x1 = 0.7 | 18.38 | 14.86 | 12.4 | 10.47 | 8.92 | 7.61 | 6.68 | 5.86 | 5.19 | 4.64
x1 = 0.8002 | 13.46 | 10.93 | 9.22 | 7.8 | 6.71 | 5.77 | 5.09 | 4.5 | 4 | 3.59
x1 = 0.9 | 8.74 | 7.19 | 6.1 | 5.2 | 4.5 | 3.9 | 3.46 | 3.08 | 2.76 | 2.48
x1 = 1 | 5.32 | 4.41 | 3.74 | 3.2 | 2.78 | 2.45 | 2.159 | 1.927 | 1.738 | 1.577
